In EP0449955B1, “SYNTHETIC HIV-LIKE PEPTIDES, THEIR COMPOSITIONS AND USES” (CLARITY TECHNOLOGIES INCORPORATED, priority 1988, dated 1996):
“Also recorded” adds a separate entry of the source.

What was measured:
antibodies to HIV-1 [1] = assay: EIA of HIV-1 gp41 peptide-protein conjugates against serum pools; format: binding, human; conditions: peptide conjugated via C-terminus to BSA (SMCC), coated at 10 micrograms peptide/ml; 1:101 dilution of HIV+ serum pool; Figure 1
Experimental: (§1) The free peptides or peptide-protein conjugates of Figures 1-13 were initially screened for immunoreactivity by coating each well of polystyrene microtiter EIA plates (Costar, Cambridge, Massachusetts, U.S.A.) with 0.2 ml amounts of concentrations of 5-50 micrograms/ml peptide in Tris buffer, 10 mM, pH 8.0, at 4°C overnight. Peptides or peptide-protein conjugates showing immunoreactivity by EIA were then further diluted for coating to determine the minimal concentrations required that allowed maximal immunoreactivity with antibodies to HIV, and minimal nonspecific reactivity with normal sera. The EIA tests were performed as follows: The coating solution was removed from each well and the wells were blocked at 37°C for 30 minutes with a solution of 50 mM phosphate, 100 mM NaCl, pH 7.4, 1% BSA, 0.5% gelatin. The wells were then aspirated dry with a microtiter plate washer and washed 3 times with a solution of 50 mM phosphate, 100 mM NaCl, .05% Tween 20, (trademark) pH 7.4 (PBST). A 1:101 dilution (in PBST with 1% BSA, 1% NRS) of the primate serum to be tested was then added as 0.2 ml to each washed well and the plates were incubated at 37°C for 30 minutes. The plates were then washed x 3 with PBST, and 0.2 ml amounts of a 1:2000 dilution of goat anti-human (GAH) peroxidase enzyme conjugate (Organon Teknika, Cappel, Melvern, Pennsylvania, U.S.A.) that recognized human IgG, IgA, and IgM were added to each well, and the plates were incubated for 30 minutes at 37°C. The plates were then washed x 3 with PBST and incubated with 0.2 ml/well substrate consisting of 0,1M citric acid pH 5.2, 0.1 mg/ml o-phenylene diamine, 0.01% H₂O₂, at room temperature in the dark for 10 minutes. Reactions were stopped with 50 microliters of 4N H₂SO₄, and the color development was quantitated in a Multiscan plate reader at A₄₉₂. In each series of experiments positive and negative controls were included, and all tests were done in duplicate or quadruplicate. Most peptides and peptide conjugates were initially screened against a 1:101 dilution of pools of HIV positive or HIV negative sera, and the same serum pool was used to allow quantitative comparison of immunoreactivity of different free peptides or peptide-protein conjugates.
The peptides in Figures 1 and 5 were synthesized as described in Example 1 and conjugated to KLH or BSA as described in Example 2. These peptide-protein conjugates were coated to polystyrene microtiter plates all at a concentration 10 micrograms peptide/ml and evaluated for immunoreactivity as described in Example 3, using a 1:101 dilution of a pool of sera (HIV+/SIV+, respectively) containing antibodies to HIV-1 (Figure 1) or to HIV-2 (Figure 5), as well as pooled serum (HIV-/SIV-, respectively) containing no antibodies to HIV-1 or HIV-2. […] Since sera from patients infected with HIV-2 are relatively unavailable in the United States, the immunoreactivity of HIV-2 synthetic peptides was assessed using serum from macaques infected with SIV, obtained from the University of Washington Primate Center, Seattle, Washington, U.S.A. The AA sequence of SIV is nearly identical to HIV-2 in the region of the peptides synthesized (see Myers et al., Human Retroviruses and AIDS, 1988. A compilation of nucleic acid and amino acid sequences. Los Alamos National Laboratory, Los Alamos, New Mexico, 87545, USA).

antibodies to HIV-2 = assay: EIA of HIV-2 peptide-BSA conjugates with macaque sera; format: binding; conditions: macaque sera containing or not containing antibodies to HIV-2, Figure 7
Experimental: The synthetic peptides of Figures 1-8 were reduced with 10mM DTT, or with immobilized DTT (Reductacryl, Calbiochem, San Diego, California, U.S.A., 10 mg Reductacryl per mg peptide) overnight at 4°C, pH8 in 10mM borate or other buffers depending upon peptide solubility, with gentle mixing. KLH was dissolved at a concentration of 10-30 mg/ml in 10 mM phosphate buffer pH 7.2., and BSA was dissolved at a concentration of 20-80 mg/ml for treatment with heterobifunctional linkers MBS (m-Maleimidobenzoyl-N-hydroxysuccinimide ester), SPDP [N-Succinimidyl 3-(2 pyridyldithio)propionate], or Sulfo-SMCC [Sulfo-Succinimidyl 4(N-maleimidomethyl)-cyclohexane-1-carboxylate]. The heterobifunctional linkers were added to the protein solutions in a molar excess of linker to BSA of 100, or of linker to KLH of 1000. MBS was dissolved in DMF at 10mg/ml, SPDP was dissolved in absolute ethanol at 10mg/ml and each of these was added dropwise with mixing into the protein solution, whereas the Sulfo-SMCC dry powder was dissolved into the protein solution. Each protein-linker mixture was reacted at room temperature for 15 minutes to 1 hour and then free linker was separated from BSA-linker or KLH-linker by gel chromatography with Sephadex G25 using 50mM phosphate, pH 6 for KLH-MBS, 10mM acetate, 100 mM Nacl, pH 4.6 for BSA-SPDP, or 100 mM phosphate, 1 mM EDTA, pH 6.5 for BSA-SMCC. The reduced peptides were separated from DTT by Sephadex G10 column chromatography when soluble DTT was used, or by centrifugation followed by filtration through a 0.22 micron filter when Reductacryl was used. Reduced peptides were combined with linker treated KLH or BSA in molar ratios of 100-1000 peptide/KLH-MBS, 1-50 peptide/BSA-SMCC, and 0.1-10 peptide/BSA-SPDP. Each reduced peptide was added to the linker-treated protein with mixing, overlayed with N₂, and then mixed gently at room temperature for one hour, and then overnight at 4°C. The SMCC-BSA conjugates were further treated with a 1 mM final concentration of mercaptoethylamine for 4 hours, and then dialyzed overnight against 100 volumes of buffer (20mM phosphate, 1 mM EDTA, 0.05% sodium azide, pH 6.5) at 4°C. All other conjugates were adjusted to a final concentration of sodium azide of 0.05%. Optimal molar ratios of peptide/protein for the conjugates were determined by solubility and antigenicity (as evaluated by EIA).
The free peptides or peptide-protein conjugates of Figures 1-13 were initially screened for immunoreactivity by coating each well of polystyrene microtiter EIA plates (Costar, Cambridge, Massachusetts, U.S.A.) with 0.2 ml amounts of concentrations of 5-50 micrograms/ml peptide in Tris buffer, 10 mM, pH 8.0, at 4°C overnight. […]

SIV/HIV-2 antibodies = assay: EIA of HIV-2 gp32 peptide-protein conjugates against macaque serum pools; format: binding; conditions: peptide conjugated via C-terminus to BSA (SMCC), coated at 10 micrograms peptide/ml; 1:101 dilution of SIV+ macaque serum pool; Figure 5
Experimental: The free peptides or peptide-protein conjugates of Figures 1-13 were initially screened for immunoreactivity by coating each well of polystyrene microtiter EIA plates (Costar, Cambridge, Massachusetts, U.S.A.) with 0.2 ml amounts of concentrations of 5-50 micrograms/ml peptide in Tris buffer, 10 mM, pH 8.0, at 4°C overnight. Peptides or peptide-protein conjugates showing immunoreactivity by EIA were then further diluted for coating to determine the minimal concentrations required that allowed maximal immunoreactivity with antibodies to HIV, and minimal nonspecific reactivity with normal sera. The EIA tests were performed as follows: The coating solution was removed from each well and the wells were blocked at 37°C for 30 minutes with a solution of 50 mM phosphate, 100 mM NaCl, pH 7.4, 1% BSA, 0.5% gelatin. The wells were then aspirated dry with a microtiter plate washer and washed 3 times with a solution of 50 mM phosphate, 100 mM NaCl, .05% Tween 20, (trademark) pH 7.4 (PBST). […] Reactions were stopped with 50 microliters of 4N H₂SO₄, and the color development was quantitated in a Multiscan plate reader at A₄₉₂. […] Most peptides and peptide conjugates were initially screened against a 1:101 dilution of pools of HIV positive or HIV negative sera, and the same serum pool was used to allow quantitative comparison of immunoreactivity of different free peptides or peptide-protein conjugates.
The peptides in Figures 1 and 5 were synthesized as described in Example 1 and conjugated to KLH or BSA as described in Example 2. These peptide-protein conjugates were coated to polystyrene microtiter plates all at a concentration 10 micrograms peptide/ml and evaluated for immunoreactivity as described in Example 3, using a 1:101 dilution of a pool of sera (HIV+/SIV+, respectively) containing antibodies to HIV-1 (Figure 1) or to HIV-2 (Figure 5), as well as pooled serum (HIV-/SIV-, respectively) containing no antibodies to HIV-1 or HIV-2. […]

antibody to HIV-1 = assay: EIA of p24 synthetic peptide-BSA conjugates with serum pools and individual sera; format: binding, human
Experimental: as §1
Figure 8 illustrates the immunoreactivity and AA sequences of synthetic peptides of the p24 protein of HIV-1, when conjugated to BSA via their C-termini using SMCC, and reacted with a pool of approximately 50 sera from persons containing antibody to HIV-1, or with a pool of approximately 30 sera from individuals devoid of antibody to HIV-1. […] No negative sera (0/85, 0%) reacted, and 17 positive sera (17/98, 17%) were immunoreactive. It has been reported that individuals lose antibodies to p24 during the course of progression from asymptomatic infection to clinical disease and AIDS (Franchini et al., Blood 69:(2):437-441, 1987, and Weber et al., Lancet i:119-122, 1987), which may explain the lower frequency of antibodies to this peptide in the sera tested.

antibodies to HIV-1 [2] = assay: EIA of peptide-carrier conjugates with individual human sera; format: binding; conditions: BSA-SMCC conjugate
Experimental: as §1
Figure 10A illustrates the immunoreactivity of synthetic natural peptides 2S06 and 2S09 (Figure 1) when conjugated via their C-terminal GC spacer to KLH using the heterobifunctional linker MBS. […] However, the immunoreactivity of many of the positives was low (A₄₉₂ less than 1.0), and some of the negative samples had A₄₉₂ values slightly above 0.20, resulting in minimal discrimination between negatives and positives. This poor discrimination led to a search for an improved carrier protein and/or linker.
Figure 10B illustrates the reactivity of synthetic natural peptide IWGCSGKLICTTAVPGC (2S09) when conjugated through its C-terminus to BSA via the heterobifunctional linker SMCC. […] Improvement in assay performance as compared with results of Example 5A is noted with respect to negative samples having lower A₄₉₂ values, and most positive samples having higher A₄₉₂ values. […] Because of the possibility that some of the low responsiveness might be due to antigenic differences of genetic variants in the region of this epitope, as reported for HIV isolates from Zaire (Gnann et al., Science 237:1346-1349, 1987), the natural sequence variant peptide 5S67 (Figure 3) was synthesized, chemically linked to BSA with SMCC, and tested against the same sera, plus one additional negative serum sample (Figure 10C). […] This instigated a search for unnatural sequence variants of peptide 2S09 that would retain high immunoreactivity with most sera that contained antibodies to HIV-1, and yet retain low reactivity with sera devoid of antibodies to HIV. […]

[3] = BSA-SMCC conjugate, 85 individual sera without antibodies to HIV-1
[4] = BSA-SMCC conjugate, 98 individual sera with antibodies to HIV-1

CSGKLICTTAVPWNAGC [3S51]
immunoreactivity with HIV-1 antibodies (antibodies to HIV-1 [1]): higher reactivity; also recorded: Significant immunoreactivity

SWGCAFRQVCHTSVPGC [5S86]
discrimination of positive from negative samples (antibodies to HIV-2): most favorable performances

LLGIWGCSGKLICTTGC [2S06]
immunoreactivity with HIV-1 antibodies (antibodies to HIV-1 [1]): Significant immunoreactivity

IKQLQARILAVERYLKDQQ [4S24, reference compound]
immunoreactivity with HIV-1 antibodies (antibodies to HIV-1 [1]): lower immunoreactivity

LGIWGCSGKLICTTAGC [2S07]
immunoreactivity with HIV-1 antibodies (antibodies to HIV-1 [1]): Significant immunoreactivity

DQARLNSWGCAFRQVC [2S24]
discrimination of positive from negative samples (antibodies to HIV-2): most favorable performances | immunoreactivity with SIV/HIV-2 antibodies (SIV/HIV-2 antibodies): maximally immunoreactive; also recorded: Significant immunoreactivity; also recorded: best immunoreactivity

GKLICTTAVPWNASWGC [3S55]
immunoreactivity with HIV-1 antibodies (antibodies to HIV-1 [1]): higher reactivity; also recorded: Significant immunoreactivity

ALGPAATLEEMMTACGC [5S94]
negative sera that reacted (antibody to HIV-1; [3]): 0/85 | negative sera that reacted (percent) (antibody to HIV-1; [3]): 0% | positive sera immunoreactive (antibody to HIV-1; [4]): 17/98 | positive sera immunoreactive (percent) (antibody to HIV-1; [4]): 17% | immunoreactivity with serum pools (antibody to HIV-1; BSA-SMCC conjugates, pool of approximately 50 positive sera and pool of approximately 30 negative sera, Figure 8): proved to be the immunoreactive peptide; also recorded: significant immunoreactivity

KDQQLLGIWGCSGKLGC [2S04]
immunoreactivity with HIV-1 antibodies (antibodies to HIV-1 [1]): Significant immunoreactivity

ERYLKDQQLLGIIVGC [2S02]
immunoreactivity with HIV-1 antibodies (antibodies to HIV-1 [1]): significantly less immunoreactive

IWGCSGKMICTTAVPGC [5S76]
immunoreactivity with positive sera (antibodies to HIV-1 [2]; 98 sera containing antibodies to HIV-1, Figures 10B, 10C, 11): strong immunoreactivity with some sera that reacted weakly in Figure 10B | positive samples giving A492 less than 1.0 (antibodies to HIV-1 [2]; of 98 positive sera, Figure 11B): Five

RILAVERYLKDQQLLGIWGCSGKLIC [4S25, reference compound]
immunoreactivity with HIV-1 antibodies (antibodies to HIV-1 [1]): lower immunoreactivity; also recorded: lower or comparable immunoreactivity; also recorded: Significant immunoreactivity

SWGCAFRQVCHTTVPGC [2S27]
discrimination of positive from negative samples (antibodies to HIV-2): most favorable performances | immunoreactivity with SIV/HIV-2 antibodies (SIV/HIV-2 antibodies): maximally immunoreactive; also recorded: Significant immunoreactivity; also recorded: best immunoreactivity

YLKDQQLLGIWGCSGC [2S03]
immunoreactivity with HIV-1 antibodies (antibodies to HIV-1 [1]): significantly less immunoreactive

KLICTTAVPWNASWSGC [2S15]
immunoreactivity with HIV-1 antibodies (antibodies to HIV-1 [1]): higher reactivity; also recorded: Significant immunoreactivity

QQLLGIWGCSGKLICGC [3S36]
immunoreactivity with HIV-1 antibodies (antibodies to HIV-1 [1]): Significant immunoreactivity

SGKLICTTAVPWNASGC [2S13]
immunoreactivity with HIV-1 antibodies (antibodies to HIV-1 [1]): higher reactivity; also recorded: Significant immunoreactivity

AVERYLKDQQLLGC [2S01]
immunoreactivity with HIV-1 antibodies (antibodies to HIV-1 [1]): significantly less immunoreactive

GCSGKLICTTAVPWNGC [2S11]
immunoreactivity with HIV-1 antibodies (antibodies to HIV-1 [1]): higher reactivity; also recorded: Significant immunoreactivity
